Article PMC10309634, “Computer simulation approach to the identification of visfatin-derived angiogenic peptides” (PLOS ONE, 2023)

Legend:
Format in all cases: cell-based, human
[1] = test system: HUVECs; assay: In vitro wound healing migration assay; settings: 18 h, scratch wound, compared to the control group
Procedure: HUVECs were seeded in 24-well plates (SPL) at a density of 2×10^5 cells and incubated in EGM medium supplemented with EGM-Supplement Mix® containing 1% FBS overnight. Cells were scratched using a P200 pipette tip to induce a wound. Subsequently, then b-FGF (25ng/ml), visfatin (1000 ng/ml), and visfatin-derived peptides (0.5μM and 2.0μM) were added and the culture was maintained for 18 hours to allow the cells to migrate. The migration patterns were observed using a phase-contrast microscope and images were captured. The wound diameters were photographed at 16–24 hours. Wound closure was determined using optical microscopy at 40× magnification. Migration was quantified by counting the number of cells that had moved beyond the reference line.

[2] = test system: HUVECs; assay: In vitro trans-well invasion assay; settings: 24 hours, Matrigel-coated trans-well, compared to the control and visfatin-treated groups
Procedure: The invasion capacity of the cells was determined using a 24-well trans-well system. The upper side of the trans-well membrane was coated with 1 mg/mL Matrigel at 10 μL/well at room temperature for 1 hour. The EGM-2 medium (0.5 ml)was added to the lower part of trans-well chamber. HUVECs (2×10^4 cells) and EGM medium (0.1 ml) were placed on the upper compartment of the trans-well. And then b-FGF (25ng/ml), visfatin (1000 ng/ml), and visfatin-derived peptides (0.5μM and 2.0μM) were added to the upper compartment of the trans-well. Cells were incubated at 37°C and 5% CO2 for 24 hours, fixed with methanol, and stained with hematoxylin and eosin. The cells on the upper surface of the membrane were removed by wiping with a cotton swab. Cell invasion was determined by counting the number of whole cells in a single filter using optical microscopy at 40× magnification. Each sample was assayed in duplicate, and independent experiments were repeated three times.

[3] = test system: HUVECs; assay: In vitro tube formation assay on Matrigel; settings: 4 hours on Matrigel
Procedure: HUVECs (2×10^4 cells/well) were seeded on a layer of polymerized Matrigel and treated with or without visfatin-derived peptides. The Matrigel culture was incubated at 37°C in the EGM supplemented with EGM-Supplement Mix® containing 1% FBS. After 4 hours, changes in the cell morphology were observed using a phase-contrast microscope and photographed at 40× magnification. Each sample was assayed in duplicate, and independent experiments were repeated three times. Angiogenesis was analyzed with ImageJ software using an angiogenesis analyzer (Bethesda, MD, USA).

[4] = test system: HUVECs; assay: MTT cell cytotoxicity assay; settings: MTT, 0.1, 0.5, 1.0 and 2.0 μM, 24 hours, triplicate
Procedure: HUVECs were grown in EGM-2 supplemented with an EGM-2 Supplement Mix® (PromoCell) containing 2% FBS at a density of 1×10^4 cells in 96-well plates (SPL Inc., Gyeonggido, Korea). After 24 hours, the cells were treated with 1000ng/ml visfatin (Adipogen Life Science) and various concentrations of visfatin-derived peptides (0.1, 0.5, 1.0, and 2.0 μM), and then incubated overnights in an atmosphere of 5% CO2. The 3-(4,5-Dimethylthiazol-2-yl)-2,5-diphenyltetrazolium bromide (MTT) assay reagents (Sigma-Aldrich, St. Louis, MO, USA) were as added directly to each well to a final concentration of 0.5 mg/ml. After 4 hours, the medium was removed, the formazan crystals formed in the cells were dissolved in DMSO, and the absorbance of the formazan solution was measured using a Synergy HTX Multi-Mode Reader (BIO-TEK, Vermont, USA) with a 540 nm filter. Each sample was assayed in triplicate.

[5] = test system: visfatin mRNA expression; assay: RT-qPCR of visfatin mRNA in HUVECs; settings: 24 hours, RT-qPCR vs GAPDH, compared to the control group
Procedure: (§1) After treating HUVECs with visfatin-derived peptides for 24 hours, the total RNA was isolated from the cultured HUVECs using the Tri-RNA reagent (Favorgen Biotech Corp., Kaohsiung, Taiwan) according to the manufacturer’s instructions. cDNA was synthesized from 1 μg of total RNA using the iScript^TM cDNA Synthesis Kit (Bio-Rad Laboratories, Inc., Hercules, CA, USA). The mRNA expression levels of VEGF and visfatin were carried out using Applied Biosystems 7500 software (Applied Biosystems Inc., Waltham, MA, USA). Real-time PCR was performed using SYBR Green Q-PCR Master Mix (Samjung Bio Science, Daejeon, South Korea). The reaction conditions were as follows: initial denaturation at 95°C for 5 min, amplification at 95°C for 15 sec, and at 60°C for 1 min. All PCR amplifications were performed for 40 cycles. The specific primers used were as follows: 5’-[…]-3’ (forward) and 5’-GTG ATGGCATGGACTGTGGT-3’ (reverse) for glyceraldehyde-3-phosphate dehydrogenase (GAPDH); 5’-GGAGG GTGACGGGGTGAAGG-3’ (forward) and 5’-[…]-3’ (reverse) for visfatin; and 5’-[…]-3’ (forward) and 5’-[…]-3’ (reverse) for VEGF-A. The relative changes in the gene expression were determined using the 2^-ΔΔCt method and the results were normalized to the expression of GAPDH.

[6] = test system: VEGF-A mRNA expression; assay: RT-qPCR of VEGF-A mRNA in HUVECs; settings: 24 hours, RT-qPCR vs GAPDH, compared to the control group
Procedure: as §1

Substance | increase in cell migration ([1]; 2.0 μM) | increase of cell invasion ([2]; 2.0 μM) | number of master junctions ([3]; 0.5 μM, vs control) | number of meshes ([3]; 0.5 μM, vs control) | cytotoxic effect / viability of HUVECs [4] | mRNA expression of visfatin ([5]; 0.5 μM) | mRNA expression of visfatin ([5]; 2.0 μM) | mRNA expression of VEGF-A ([6]; 0.5 μM) | mRNA expression of VEGF-A ([6]; 2.0 μM) | number of meshes ([3]; positive controls, compared to the control group) | increase in cell migration ([1]; 0.5 μM) | increase of cell invasion ([2]; 0.5 μM) | number of master junctions ([3]; 2.0 μM, vs control)
EYKLHDFGYRGV [Peptide-2, visfatin-derived peptide … (12AA), synthesised by GL Biochem] | two-fold increase | more than two-fold | significantly increased | significantly increased | no cytotoxic effect | significantly increased | significantly increased | significantly increased | remarkably increased |  |  |  | 
b-FGF: recombinant human basic fibroblast growth factor, positive control |  |  |  |  |  |  |  |  |  | not significantly different |  |  | 
LEYKLHDFGY [Peptide-1, visfatin-derived peptide […]; (10AA), synthesised by GL Biochem] |  |  | significantly increased | significantly increased | no cytotoxic effect | significantly increased | did not increase | significantly increased | did not increase |  | two-fold increase | more than two-fold | significantly increased
